Assay results published in patent US12478001B2, “Plant activator containing amino acid or salt thereof, and oligosaccharide, and use thereof” (priority 2019, dated 2025).

Legend:
Format in all cases: in vivo
komatsuna [1] = experiment: Measurement of komatsuna fresh weight after foliar application; settings: komatsuna raised 34 days in soil, vitalizer applied to leaves at one-week intervals; control = Comparative Example 11 without vitalizer
Protocol: Each oligosaccharide prepared in [1. […] Each stock solution was diluted 1000-fold with water and used for the following cultivation test. A sample was prepared with […] Corp.) as the plant crop, organic vegetable soil (Hirota Shoten) as the soil and Shin-Taki Organic Liquid Fertilizer #3 (Taki Chemical Co., Ltd.) as the fertilizer. After sprouting the plants on filter paper, they were planted into a 25-hole connected pot (280×280 mm overall, with holes of 50×50×50 mm) containing culturing soil and fertilizer.

komatsuna [2] = experiment: Evaluation of komatsuna elicitor activity (glucanase activity measurement); settings: komatsuna grown 6 days on MS agar medium containing plant vitalizer; glucanase activity (Abs590) of leaf extract; control = Comparative Example 3 without vitalizer
Protocol: (i) The plant is sampled and pretreated; (ii) a calibration curve is drawn using BSA as the protein standard (using absorbance at a wavelength (600 nm) in a dye binding method); (iii) the protein concentration of the specimen prepared in (i) is measured; (iv) the glucanase activity of the specimen prepared in (i) is measured.
Each oligosaccharide prepared in [1. Preparation of oligosaccharide] and each amino acid prepared in [2. […] Each stock solution was diluted 1000-fold with water and used for the following cultivation test.
Murashige and Skoog (MS) agar medium was used for raising of the komatsuna.
High-pressure steam sterilized MS medium was transferred into a plant box on a clean bench and thoroughly cooled, and then komatsuna (“Wakami”, Sakata Seed Corp.) were seeded in a count of 10 each. They were then grown for 6 days with long-day conditions of 24 hours in a lighted room at 22° C.
After adding 300 μl of the prepared protein extraction buffer into a 1.5 ml tube equipped with a Biomasher (Nippi, Inc.), leaves (plant body) sampled and cut with scissors to approximately 4×4 mm were added. The procedure was carried out 5 times for each sample. A stirring rod was then rotated by hand to break up the plant body until the solid portion was generally no longer visible. Centrifugal separation was carried out under conditions of 15,000×g, 10 minutes, 4° C., and the aqueous layer was collected into a fresh 1.5 ml tube to prepare a liquid extract.
A 2 mg/ml portion of bovine serum albumin (BSA) of known purity was serially diluted (1/2, 1/4, 1/8, 1/16, 1/32 and 1/64 dilution) to prepare standards. The prepared standards were used to determine the average absorbance at 600 nm (Abs600), and a calibration curve was drawn (n=3). After injecting 300 μl of Coomassie Brilliant Blue (CBB) solution into a 96-well plate, 6 μl of the prepared liquid extract was added. The Abs600 was then measured. The blank used was MilliQ. The absorbance of the liquid extract was fitted onto the calibration curve drawn with the 2 mg/ml of serially diluted BSA, to determine the protein concentration.
Dilution was carried out to a constant liquid extract concentration using the determined values, and the diluted extract was used for the following glucanase activity measurement.
In a 1.5 ml tube there were mixed 100 μl of a B-HS substrate solution prepared by suspending one tablet of B-HS reagent (Megazyme Co.) in 10 ml of MilliQ, 50 μl of 0.2 M phosphate buffer solution (pH 6.0) and 50 μl of the previously prepared diluted solution or ultrapure water (blank), to prepare samples for each of the Comparative Examples and Examples. Enzyme reaction was conducted for 1 hour and 30 minutes in a water bath at 30° C., shaking the sample well every 15 minutes. A 100 μl portion of 0.2 N NaOH as reaction stop solution (total: 300 μl) was added to stop the reaction.

frill lettuce = experiment: Frill lettuce hydroponic cultivation test, root dry weight; settings: hydroponics, 60 days cultivation, percentage with non-added group root dry weight as 100%, vitalizer 50-100 ppm by mass
Protocol: Each oligosaccharide prepared in [1. Preparation of oligosaccharide] and each amino acid prepared in [2. Preparation of amino acids] were dissolved in water while stirring with a stirrer in a compositional ratio to 1000 times the plant vitalizer concentration (ppm by mass) in Comparative Examples 1 and 2 and Examples 1 and 6 to 7 listed in the tables, after which the bacteria were removed with a 0.45 μm filter, to obtain plant vitalizer stock solutions.
In the test groups, 150 g of each of the plant vitalizer stock solutions under different conditions was added to and dispersed in 150 L of culture solution prepared for hydroponics (1000-fold dilution), and cultivation was started for each of 120 varieties at a temperature of 20 to 22° C. Cultivation was carried out for a total of 60 days, with a total of 5 times every week after beginning further addition of 150 g of plant vitalizer stock solution, and the root dry weights of the frill lettuce were measured.
The root dry weights were determined by cutting the root parts, drying the cut roots with a constant temperature dryer for 12 hours at 50° C., and then measuring the weights.
The root dry weights in Table 1 are percentages (%) with respect to 100% as the root dry weight in the non-added group without plant vitalizer addition.

Row | SMILES | Fresh weight (compared to control as 100) (komatsuna [1]) [%] | Elicitor activity (compared to control as 100) (komatsuna [2]) | further results
1 | NCC(=O)O [compound 13, Glycine] | 102 | – | –
2 | NCCCC[C@H](N)C(=O)O [Comparative Example 6, Lysine] | – | 104 | –
3 | N[C@@H](CCC(=O)[O-])C(=O)[O-].[Na+].[Na+] [compound 14, Sodium glutamate] | 89 | – | –
4 | N[C@@H](Cc1c[nH]cn1)C(=O)O [compound 8, Histidine] | – | 89 | –
5 | N[C@@H](CCC(=O)[O-])C(=O)[O-].[Na+].[Na+] [compound 7, Sodium glutamate] | – | 82 | –
6 | N[C@@H](Cc1c[nH]cn1)C(=O)O [compound 12, Histidine] | 92 | – | –
7 | N=C(N)NCCC[C@H](N)C(=O)O [compound 10, Arginine] | – | 79 | –
8 | NCC(=O)O [compound 5, Glycine] | – | 141 | –
9 | NCC(=O)O [Comparative Example 2, Glycine] | – | – | Increase in root dry weight with respect to non-added group (measured n = 5) (frill lettuce): 112%
10 | C[C@H](N)C(=O)O [compound 9, Alanine] | – | 72 | –
